Reference: US11360080B2, “AhR-ROR-γt complex as a biomarker and therapeutic target for autoimmune disease and IL-17A-associated disease” (NATIONAL HEALTH RESEARCH INSTITUTES, priority 2018, dated 2022)
Structures can show the parent of a compound that is named as a salt.

How the values were obtained:
[1] = target: T1, GLK−IQGAP1 complex (Mus musculus, UniProt Q99JP0); assay: In situ PLA in lung tissues of mice of the LLC/luc metastatic lung cancer model; assay type: in vivo
T1 construct: from tissue; host or cells: mouse lung tissue (LLC/luc metastatic lung cancer model)
T1 sequence (Q99JP0 whole entry, one chain of several): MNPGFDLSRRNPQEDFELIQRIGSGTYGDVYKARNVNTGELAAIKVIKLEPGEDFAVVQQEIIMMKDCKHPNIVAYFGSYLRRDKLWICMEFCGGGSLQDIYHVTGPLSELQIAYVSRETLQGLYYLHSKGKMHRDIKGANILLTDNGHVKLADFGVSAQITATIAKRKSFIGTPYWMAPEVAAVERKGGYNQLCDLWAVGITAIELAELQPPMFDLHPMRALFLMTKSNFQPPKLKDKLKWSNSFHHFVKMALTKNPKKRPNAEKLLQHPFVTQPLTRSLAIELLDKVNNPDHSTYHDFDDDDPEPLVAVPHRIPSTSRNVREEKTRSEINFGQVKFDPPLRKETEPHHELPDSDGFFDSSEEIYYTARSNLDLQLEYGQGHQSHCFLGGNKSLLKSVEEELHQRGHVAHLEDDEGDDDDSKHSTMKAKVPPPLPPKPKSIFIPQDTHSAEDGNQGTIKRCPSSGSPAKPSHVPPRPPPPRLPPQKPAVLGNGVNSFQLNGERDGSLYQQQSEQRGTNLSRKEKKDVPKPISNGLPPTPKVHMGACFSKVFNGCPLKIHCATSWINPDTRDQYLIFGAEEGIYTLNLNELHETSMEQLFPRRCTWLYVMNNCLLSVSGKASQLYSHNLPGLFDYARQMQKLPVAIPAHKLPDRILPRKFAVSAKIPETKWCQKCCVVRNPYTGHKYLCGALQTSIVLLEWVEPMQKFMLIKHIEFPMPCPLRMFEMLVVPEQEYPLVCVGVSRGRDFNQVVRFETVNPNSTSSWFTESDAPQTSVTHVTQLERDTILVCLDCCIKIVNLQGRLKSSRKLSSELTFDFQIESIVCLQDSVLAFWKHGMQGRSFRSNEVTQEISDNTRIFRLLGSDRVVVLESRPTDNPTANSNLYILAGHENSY
From the text: (A) The molecular docking of GLK kinase domain structure with C1 (verteporfin). A three-dimensional structure model depicts the binding of C1 to the predicted GLK kinase domain containing phosphorylated Ser-170. The putative binding affinity was −7.4 kcal/mol. (B) The molecular docking of GLK kinase domain structure with C2 (alexidine dihydrochloride). A three-dimensional structure model depicts the binding of C2 to the predicted GLK kinase domain containing phosphorylated Ser-170. The putative binding affinity was −7.0 kcal/mol. (C) Co-immunoprecipitation (co-IP) of Flag-tagged GLK and GFP-fusion GLK using lysates of HEK293T cells co-transfected with Flag-GLK and GFP-GLK plasmids. Cells were treated with C1 (verteporfin) or C2 (alexidine dihydrochloride). (D) Administration of the GLK inhibitor C1 (0.556 nmole/g) or C2 (0.085 nmole/g) every 3 days for 30 days in the LLC/luc metastatic lung cancer mouse model. (E) The luciferase activity in mice treated with C1 (verteporfin), C2 (alexidine dihydrochloride), or vehicle was detected by IVIS Spectrum. (F) Luminescent intensity of photons emitted from LLC/luc cells in the images in (e) was quantified. (G) Representative immunohistochemistry of H&E in lung tissues from mice treated with C1 (verteporfin), C2, or vehicle. Scale bar, 0.5 cm. (H) In situ PLA assays of the interaction between GLK and IQGAP1 (upper panel) or phosphorylated IQGAP1 Ser-480 (lower panel) in lung tissues from mice treated with C1 (verteporfin), C2 (alexidine dihydrochloride), or vehicle in the LLC/luc metastatic lung cancer mouse model. Original magnification, ×40.
For experiments using human pulmonary tissues, tissue sections were deparafinized, antigen retrieved, and nonspecific-binding blocked, followed by in situ PLA assays using primary antibodies for IQGAP1 (1:4,000, CUSABIO) plus either GLK (1:3,000, mAb clone C3) or phospho-IQGAP1 Ser-480 (1:2,000, Allbio Science). The monoclonal antibody for phosphorylated IQGAP1 Ser-480 was generated by immunization of a mouse with phospho-peptides (human IQGAP1 epitope: ^473NTVWKQL[pS] SSVTGLT^487; SEQ ID NO: 32). The tissue sections were then incubated with species-specific secondary antibodies conjugated with oligonucleotides ([…]), followed by ligation and amplification reactions. The number of PLA signals for GLK−IQGAP1 complex or phosphorylated IQGAP1 per tissue (3.14 mm^2) was counted.

[2] = target: T2, GLK−IQGAP1 interaction (Homo sapiens, UniProt Q8IVH8); assay: FRET assay of HEK293T cells with CFP- and YFP-fused GLK and IQGAP1; assay type: cell-based
T2 construct: expressed in transfected cells; host or cells: HEK293T
T2 sequence (Q8IVH8 whole entry, the tested form may be a part): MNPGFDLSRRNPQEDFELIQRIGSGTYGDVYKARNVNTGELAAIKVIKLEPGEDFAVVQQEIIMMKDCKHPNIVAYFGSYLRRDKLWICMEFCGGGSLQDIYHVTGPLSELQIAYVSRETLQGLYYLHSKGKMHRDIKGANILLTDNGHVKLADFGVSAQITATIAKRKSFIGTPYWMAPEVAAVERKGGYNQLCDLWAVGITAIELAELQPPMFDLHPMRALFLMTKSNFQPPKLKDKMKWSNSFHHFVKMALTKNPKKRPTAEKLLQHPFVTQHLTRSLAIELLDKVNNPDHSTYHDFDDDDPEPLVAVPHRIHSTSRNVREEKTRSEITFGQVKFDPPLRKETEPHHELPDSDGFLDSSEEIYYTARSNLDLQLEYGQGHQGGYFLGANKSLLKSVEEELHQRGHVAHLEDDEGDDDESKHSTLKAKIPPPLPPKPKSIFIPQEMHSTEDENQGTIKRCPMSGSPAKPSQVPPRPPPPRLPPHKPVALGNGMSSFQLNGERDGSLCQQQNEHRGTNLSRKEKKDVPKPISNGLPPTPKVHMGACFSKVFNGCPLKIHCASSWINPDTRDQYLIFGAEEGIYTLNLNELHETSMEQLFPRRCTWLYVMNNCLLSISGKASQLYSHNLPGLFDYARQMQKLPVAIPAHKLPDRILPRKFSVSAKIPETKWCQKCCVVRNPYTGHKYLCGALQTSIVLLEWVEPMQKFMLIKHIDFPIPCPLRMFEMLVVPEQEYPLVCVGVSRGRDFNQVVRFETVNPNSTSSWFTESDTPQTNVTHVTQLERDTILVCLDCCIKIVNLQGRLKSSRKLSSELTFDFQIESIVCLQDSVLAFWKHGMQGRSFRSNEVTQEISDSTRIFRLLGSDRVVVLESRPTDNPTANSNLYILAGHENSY
Protocol: (A) Silver-stained gel of anti-Flag immunoprecipitates from HEK293T cells transfected with empty vector or Flag-tagged GLK in the presence or absence of the tyrosine phosphatase inhibitor pervanadate (25 μM). Arrows indicate the positions of GLK or GLK-interacting proteins. (B) Four pervanadate-induced tyrosine phosphorylation residues of GLK proteins were listed. (C and D) Co-immunoprecipitation of anti-Flag (C) or anti-Myc (D) immunocomplexes from lysates of HEK293T cells transfected with Flag-tagged GLK, Myc-tagged IQGAP1, or both plasmids. The whole-cell lysate immunoblots before immunoprecipitation (Pre-IP) are shown at the bottom of each panel. β-Tubulin was used as the loading control. (E) Co-immunoprecipitation of anti-Flag immunocomplexes from lysates of HEK293T cells transfected with either Flag-tagged GLK or Flag-tagged GLK mutant (Y366F, Y379F, Y574F, or Y735F). […]
FRET signal in live cells was detected by EnVision 2104 Multilabel Plate Reader (Perkin Elmer). The reaction was excited by light passing through a 430-nm filter (with 8 nm bandwidth), and the intensity of emitted fluorescence passing through a 530-nm filter (with 8 nm bandwidth) was recorded. If the protein-protein pair is in close proximity (1-10 nm), a 530-nm signal will be detected. […]

CCCCC(CC)CNC(=N)NC(=N)NCCCCCCNC(=N)NC(=N)NCC(CC)CCCC (stereo not drawn) [C2, alexidine dihydrochloride]
inhibited: IQGAP1 (Ser-480) phosphorylation in the lung tissues [1] | interaction between GLK and IQGAP1 in the lung tissues [1] | FRET signals of GLK−IQGAP1 interaction [2]

C=Cc1c(C)c2cc3nc(cc4[nH]c(cc5nc(cc1[nH]2)C(C)=C5CCC(=O)O)c(CCC(=O)OC)c4C)[C@@]1(C)C3=CC=C(C(=O)OC)[C@H]1C(=O)OC [C1, verteporfin]
inhibited: IQGAP1 (Ser-480) phosphorylation in the lung tissues [1] | interaction between GLK and IQGAP1 in the lung tissues [1] | FRET signals of GLK−IQGAP1 interaction [2]
